Square brackets hold non-standard residues; d marks the D form. Ends that are not written are not given here. Peptide text beside a SMILES is read from it.
Tests used:
HEK293T cells = assay: Cytotoxicity MTT assay; assay type: cell-based, human; conditions: 24 h, 37°C, 128 μM peptide, three independent assays
E. coli = assay: Geometric mean of MICs, selectivity and targeting indices; assay type: cell-based; conditions: for TI Pathogenic strains (targeting index): GM(E. coli)/GM(other pathogenic strains); for TI Pathogenic strains (targeting index) / TI Beneficial strains (targeting index): smaller = greater specificity; for SI E. coli (selectivity index): MHC/GM (E. coli), MHC >128 counted as 256 μM, larger = greater cell selectivity; for TI All (TIall, targeting index): all strains, smaller = greater specificity for E. coli; for GM E. coli: geometric mean of MICs against the 6 E. coli strains, >128 counted as 256 μM; for TI Beneficial strains (targeting index): GM(E. coli)/GM(beneficial strains)
E. coli ATCC25922 = assay: Salt, serum, acid and alkaline sensitivity; assay type: cell-based; conditions: for MIC, Control: absence of physiological salts, serum, acid and alkaline; for MIC, FeCl3: in presence of 4μM FeCl3 (final); for MIC, MgCl2: in presence of 1 mM MgCl2; for MIC, KCl: in presence of 4.5 mM KCl (final); for MIC, NaCl: in presence of 150 mM NaCl (final); for MIC, PH=2: peptide incubated at pH=2 for 4 h prior to MIC determination; for MIC, PH=4: peptide incubated at pH=4 for 4 h prior to MIC determination; for MIC, PH=10: peptide incubated at pH=10 for 4 h prior to MIC determination; for MIC, PH=12: peptide incubated at pH=12 for 4 h prior to MIC determination
IPEC-J2 cells = assay: Cytotoxicity MTT assay; assay type: cell-based, porcine; conditions: 24 h, 37°C, 128 μM peptide, three independent assays
Beneficial strains = assay: Geometric mean of MICs; assay type: cell-based; conditions: geometric mean of MICs against beneficial strains; >128 counted as 256 μM
E. coli 25922 = assay: Outer membrane permeability; assay type: cell-based; conditions: 2 μM peptide, relative to 10 μg/mL polymyxin B, 5 mM HEPES pH 7.4

| Molecule | cells killed (HEK293T cells) | TI Pathogenic strains (targeting index) (E. coli) | SI E. coli (selectivity index) (E. coli) | TI All (TIall, targeting index) (E. coli) | GM E. coli (E. coli) [µM] | MIC, Control (E. coli ATCC25922) [µM] | MIC, FeCl3 (E. coli ATCC25922) [µM] | MIC, MgCl2 (E. coli ATCC25922) [µM] | MIC, KCl (E. coli ATCC25922) [µM] | MIC, NaCl (E. coli ATCC25922) [µM] | MIC, PH=2 (E. coli ATCC25922) [µM] | MIC, PH=4 (E. coli ATCC25922) [µM] | MIC, PH=10 (E. coli ATCC25922) [µM] | MIC, PH=12 (E. coli ATCC25922) [µM] | cells killed (IPEC-J2 cells) | GM Beneficial strains (Beneficial strains) [µM] | TIall lower than that of melittin (E. coli; from TIall) [times] | increase of specificity for E. coli relative to parental peptide 2 (E. coli; from TIall) [times] | outer membrane permeability (NPN uptake) (E. coli 25922) [%] | TI Beneficial strains (targeting index) (E. coli) |
| --- | --- | --- | --- | --- | --- | --- | --- | --- | --- | --- | --- | --- | --- | --- | --- | --- | --- | --- | --- | --- |
| WIKIWKKIIKKWKK [Peptide 10] | approximately 99% | 0.707 | 40.315 | 0.376 | 6.350 | 8 | 8 | 64 | 8 | 32 | 8 | 8 | 8 | 8 | ~63% | 181.019 |  |  |  |  |
| CC[C@H](C)[C@H](NC(=O)CNC(=O)[C@H]1CCCN1C(=O)[C@H](CCCCN)NC(=O)[C@H](Cc1c[nH]c2ccccc12)NC(=O)[C@@H](NC(=O)[C@H](CCCCN)NC(=O)[C@H](CCCCN)NC(=O)[C@@H](N)Cc1c[nH]c2ccccc12)[C@@H](C)CC)C(=O)N[C@@H](CCCCN)C(=O)N[C@@H](CCCCN)C(=O)N[C@@H](Cc1c[nH]c2ccccc12)C(=O)N[C@H](C(=O)N[C@@H](CCCCN)C(=O)NCC(=O)NCC(=O)NCC(=O)N[C@@H](CCC(N)=O)C(=O)N[C@@H](CCCCN)C(=O)N[C@@H](CCCNC(=N)N)C(=O)N1CCC[C@H]1C(=O)N[C@@H](CCCNC(=N)N)C(=O)N[C@H](C(=O)N[C@@H](CCCNC(=N)N)C(=O)N[C@@H](CC(C)C)C(=O)N[C@@H](CO)C(=O)N[C@@H](C)C(=O)O)C(C)C)[C@@H](C)CC [Peptide 11] (H-WKKIWK[dP]GIKKWIKGGGQKRPRVRLSA-OH; N-terminus and C-terminus assumed) |  | 0.020 | 80.630 | 0.028 | 3.175 | 2 | 4 | 16 | 2 | 32 | 4 | 4 | 2 | 4 |  | 256.000 | 31 | 2.4 | 61 |  |
| CC[C@H](C)[C@H](NC(=O)CNC(=O)[C@H]1CCCN1C(=O)[C@H](CCCCN)NC(=O)[C@H](Cc1c[nH]c2ccccc12)NC(=O)[C@@H](NC(=O)[C@H](CCCCN)NC(=O)[C@@H](NC(=O)[C@@H](N)Cc1c[nH]c2ccccc12)[C@@H](C)CC)[C@@H](C)CC)C(=O)N[C@@H](CCCCN)C(=O)N[C@@H](CCCCN)C(=O)N[C@@H](Cc1c[nH]c2ccccc12)C(=O)N[C@@H](CCCCN)C(=O)N[C@@H](CCCCN)C(=O)O [Peptide 9] (H-WIKIWK[dP]GIKKWKK-OH; N-terminus and C-terminus assumed) |  | 0.088 | 14.255 | 0.100 | 17.959 | 16 | 16 | 64 | 32 | >64 | 32 | 32 | 16 | 16 |  | 161.270 |  |  |  | 0.111 |
| CC[C@H](C)[C@H](NC(=O)CNC(=O)[C@H]1CCCN1C(=O)[C@H](CCCCN)NC(=O)[C@H](Cc1c[nH]c2ccccc12)NC(=O)[C@@H](NC(=O)[C@H](CCCCN)NC(=O)[C@H](CCCCN)NC(=O)[C@@H](N)Cc1c[nH]c2ccccc12)[C@@H](C)CC)C(=O)N[C@@H](CCCCN)C(=O)N[C@@H](CCCCN)C(=O)N[C@@H](Cc1c[nH]c2ccccc12)C(=O)N[C@H](C(=O)N[C@@H](CCCCN)C(=O)NCC(=O)NCC(=O)NCC(=O)N[C@@H](CCCCN)C(=O)N[C@@H](CCCCN)C(=O)O)[C@@H](C)CC [Peptide 6] (H-WKKIWK[dP]GIKKWIKGGGKK-OH; N-terminus and C-terminus assumed) |  | 0.056 | 20.159 | 0.053 | 12.699 | 8 | 8 | 32 | 8 | >64 | 32 | 16 | 16 | 16 |  | 256.000 |  |  |  | 0.050 |
| CC[C@H](C)[C@H](NC(=O)CNC(=O)[C@H]1CCCN1C(=O)[C@H](CCCCN)NC(=O)[C@H](Cc1c[nH]c2ccccc12)NC(=O)[C@@H](NC(=O)[C@H](CCCCN)NC(=O)[C@H](CCCCN)NC(=O)[C@H](Cc1c[nH]c2ccccc12)NC(=O)[C@@H](NC(=O)[C@H](CCCCN)NC(=O)[C@H](CCCCN)NC(=O)[C@@H](N)Cc1c[nH]c2ccccc12)[C@@H](C)CC)[C@@H](C)CC)C(=O)N[C@@H](CCCCN)C(=O)N[C@@H](CCCCN)C(=O)N[C@@H](Cc1c[nH]c2ccccc12)C(=O)N[C@H](C(=O)N[C@@H](CCCCN)C(=O)N[C@@H](CCCCN)C(=O)N[C@@H](Cc1c[nH]c2ccccc12)C(=O)N[C@H](C(=O)N[C@@H](CCCCN)C(=O)O)[C@@H](C)CC)[C@@H](C)CC [Peptide 4] (H-WKKIWKKIWK[dP]GIKKWIKKWIK-OH; N-terminus and C-terminus assumed) | approximately 99% | 0.445 |  | 0.233 | 1.122 | 2 | 2 | 2 | 2 | 2 | 2 | 2 | 2 | 2 | approximately 99% | 50.797 |  |  |  | 0.022 |
| CC[C@H](C)[C@H](NC(=O)CNC(=O)[C@H]1CCCN1C(=O)[C@H](CCCCN)NC(=O)[C@H](Cc1c[nH]c2ccccc12)NC(=O)[C@@H](NC(=O)[C@H](CCCCN)NC(=O)[C@H](CCCCN)NC(=O)[C@@H](N)Cc1c[nH]c2ccccc12)[C@@H](C)CC)C(=O)N[C@@H](CCCCN)C(=O)N[C@@H](CCCCN)C(=O)N[C@@H](Cc1c[nH]c2ccccc12)C(=O)N[C@@H](CCCCN)C(=O)N[C@@H](CCCCN)C(=O)O [Peptide 8] (H-WKKIWK[dP]GIKKWKK-OH; N-terminus and C-terminus assumed) |  | 0.079 | 12.699 | 0.079 | 20.159 | 16 | 16 | 32 | 16 | >64 | 64 | 32 | 16 | 64 |  | 256.000 |  |  |  | 0.079 |

— paper doi:10.1101/679977v1 (bioRxiv, 2019)
